From ChEMBL document CHEMBL3751833, “Discovery of potent aryl-substituted 3-[(3-methylpyridine-2-carbonyl) amino]-2,4-dimethyl-benzoic acid EP4 antagonists with improved pharmacokinetic profile” (Bioorg Med Chem Lett, 2016)
≈ marks a conversion by molar mass, not a printed value. Calls of active or inactive are those of the source. No cut-off for these calls is given here.

Columns and labels:
Rattus norvegicus [1] = assay: Antiinflammatory activity in adjuvant-induced arthritis rat model assessed as inhibition of paw swelling at 10 mg/kg administered 15 days post adjuvant challenge; type: functional, organism-based
Rattus norvegicus [2] = assay: Analgesic activity in […]-induced rat joint pain model assessed as inhibition of differential weight bearing at 5 mg/kg, po measured 30 mins post dose; type: functional, organism-based
[3] = biological target: T1, Prostaglandin E2 receptor EP4 subtype (Homo sapiens, UniProt P35408); assay: Antagonist activity at human EP4 receptor expressed in HEK293 cells assessed as inhibition of PGE2-stimulated cAMP production after 1 hr by HTRF assay; type: functional, cell-based
T1 sequence (P35408 whole entry): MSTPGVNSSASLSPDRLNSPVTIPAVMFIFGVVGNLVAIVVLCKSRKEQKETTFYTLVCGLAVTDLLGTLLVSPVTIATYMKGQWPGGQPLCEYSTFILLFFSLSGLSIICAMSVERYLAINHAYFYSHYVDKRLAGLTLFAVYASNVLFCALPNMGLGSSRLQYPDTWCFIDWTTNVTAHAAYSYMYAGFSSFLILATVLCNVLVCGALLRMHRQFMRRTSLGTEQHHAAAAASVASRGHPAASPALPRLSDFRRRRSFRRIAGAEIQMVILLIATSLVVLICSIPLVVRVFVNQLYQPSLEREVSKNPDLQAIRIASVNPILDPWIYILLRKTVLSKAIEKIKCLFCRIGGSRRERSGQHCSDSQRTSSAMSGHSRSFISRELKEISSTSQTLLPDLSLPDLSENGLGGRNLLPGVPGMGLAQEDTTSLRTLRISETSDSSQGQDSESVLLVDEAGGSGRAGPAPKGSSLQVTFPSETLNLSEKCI

[4] = biological target: T1, Prostaglandin E2 receptor EP4 subtype; assay: Antagonist activity at EP4 receptor in LPS-stimulated human whole blood assessed as inhibition of PGE2-induced TNF-alpha release pretreated for 30 mins followed by addition of PGE2 measured after 20 to 24 hrs by immunoassay; type: tissue-based
[5] = Aqueous solubility of compound at pH 6 after 20 hrs by HPLC analysis; type: physicochemical
[6] = Clearance in rat at 1 mg/kg, iv; type: ADME, organism-based; details: in vivo
[7] = AUC in rat at 5 mg/kg, po; type: ADME, organism-based; details: in vivo
[8] = Oral bioavailability in rat at 5 mg/kg; type: ADME, organism-based; details: in vivo
[9] = Oral bioavailability in rat; type: ADME, organism-based; details: in vivo

Structure (SMILES)	IC50 [3] [nM]	IC50 [4] [nM]	solubility at 20 h [5] [µg/mL]	clearance [6] [mL/min/kg]	AUC [7] [ng·h/mL]	bioavailability [8] [%]	bioavailability [9] [%]	inhibition (Rattus norvegicus [1])	inhibition (Rattus norvegicus [2])
O=C(O)Cc1ccccc1Nc1c(Cl)cccc1Cl								Active	Active
Cc1ccc(-c2cccc(CO)c2)nc1C(=O)Nc1c(C)cc(C(=O)O)cc1C	0.67	56.3	14 (≈ 35.9 µM)	7	4330	36			
Cc1cc(C(=O)O)cc(C)c1NC(=O)c1nc(-c2cccc(CO)c2)ccc1C(F)(F)F	0.67	121	23 (≈ 51.8 µM)	54	243	16			

Further lines, with some results ahead:

IC50 [3] [nM]	IC50 [4] [nM]	solubility at 20 h [5] [µg/mL]	clearance [6] [mL/min/kg]	AUC [7] [ng·h/mL]	bioavailability [8] [%]	bioavailability [9] [%]	Structure (SMILES)	inhibition (Rattus norvegicus [1])	inhibition (Rattus norvegicus [2])
0.28	18.7	31 (≈ 79.6 µM)	71	88	13		Cc1ccc(-c2cccc(CO)c2)cc1C(=O)Nc1c(C)cc(C(=O)O)cc1C		
0.73	47.8	774 (≈ 1970 µM)	91	105	12		Cc1cc(C(=O)O)cc(C)c1NC(=O)c1cc(-c2cccc(CO)c2)ccc1F		
						100	Cc1ccc(C(=O)O)c(C)c1NC(=O)c1cc(-c2cccc(Cl)c2)cc2ccccc12		
